Assay results as given in patent US7361671B2, “Substituted heteroarylalkanoic acids” (The Institute for Pharmaceutical Discovery, Inc., priority 2001, dated 2008).
pIC50: −log10 of the molar value. Counter-ions that a name gives are not always drawn.

Key:
[1] = molecular target: human aldose reductase (hALR2) (Homo sapiens, UniProt P15121); assay: inhibition of human aldose reductase (hALR2) activity, methods similar to Butera et al.; format: biochemical; conditions: concentration to inhibit activity by 50%, read-out: hAR-#1 (aldose)
Experimental: Representative compounds of the invention are tested for their potency, selectivity and efficacy as inhibitors of human aldose reductase. […] Using this assay, the concentrations required to inhibit human aldose reductase (hALR2) activity by 50% (IC50) are determined.

Row | melting point | pIC50 [1] | Structure (SMILES)
1 | 110 °C (dec.) | – | O=C(O)Cc1cc(Cc2nc3c(F)c(F)cc(F)c3s2)cnc1-c1ccccc1 (as salt: hydrochloride) [Example 13, 2-phenyl-5-(4,5,7-trifluoro-benzothiazol-2-ylmethyl)-pyridin-3-yl-acetic acid hydrochloride]
2 | 205 to 207 °C (dec.) | – | O=C(O)Cc1cnc(-c2ccccc2)c(Cc2nc3c(F)c(F)cc(F)c3s2)c1 (as salt: hydrochloride) [Example 15, 6-Phenyl-5-(4,5,7-trifluoro-benzothiazol-2-ylmethyl)-pyridin-3-yl-acetic acid hydrochloride]
3 | 211 °C (dec.) | 8.40 | Cc1nc(C)c(Cc2nc3c(F)c(F)cc(F)c3s2)cc1CC(=O)O.Cl [Example 4, 2,6-Dimethyl-5-(4,5,7-trifluoro-benzothiazole-2-ylmethyl)-pyridin-3-yl-acetic acid hydrochloride]
4 | 170 to 171 °C | 7.44 | Cc1sc(C)c(Cc2nc3c(F)c(F)cc(F)c3s2)c1CC(=O)O [Example 18, [2,5-Dimethyl-4-(4,5,7-trifluoro-benzothiazol-2-ylmethyl)-thiophen-3-yl]-acetic acid]
5 | 132 to 133 °C | 7.57 | O=C(O)Cc1ccc(Cc2nc3c(F)c(F)cc(F)c3s2)s1 [Example 19, [5-(4,5,7-trifluoro-benzothiazol-2-ylmethyl)-thiophen-2-yl]-acetic acid]
6 | 144 to 146 °C | 8.05 | O=C(O)Cc1cc(Cc2nc3c(F)c(F)cc(F)c3s2)cs1 [Example 21, [4-(4,5,7-Trifluoro-benzothiazol-2-ylmethyl)-thiophen-2-yl]-acetic acid]
7 | 142 to 144 °C | 7.62 | O=C(O)Cc1ccsc1Cc1nc2c(F)c(F)cc(F)c2s1 [Example 23, [2-(4,5,7-trifluoro-benzothiazol-2-ylmethyl)-thiophen-3-yl]-acetic acid]

More lines, now with the values behind:

Row | Structure (SMILES) | melting point | pIC50 [1]
8 | Cc1nc(C)c(Cc2nc3c(F)c(F)cc(F)c3s2)c(C)c1CC(=O)O (as salt: hydrochloride) [Example 9, 2,4,6-trimethyl-5-(4,5,7-trifluoro-benzothiazol-2-ylmethyl)-pyridin-3-yl-acetic acid hydrochloride] | 216 to 217 °C | –
9 | CCc1c(CC(=O)O)c(C)nc(C)c1Cc1nc2c(F)c(F)cc(F)c2s1 (as salt: hydrochloride) [Example 10, 2,6-dimethyl-4-ethyl-5-(4,5,7-trifluoro-benzothiazol-2-ylmethyl)-pyridin-3-yl-acetic acid hydrochloride] | 193 to 195 °C | –
10 | O=C(O)Cc1cc(Cc2nc3c(F)c(F)cc(F)c3s2)cnc1Cc1ccccc1 (as salt: hydrochloride) [Example 12, 2-benzyl-5-(4,5,7-trifluoro-benzothiazol-2-ylmethyl)-pyridin-3-yl-acetic acid hydrochloride] | 175 °C (dec.) | –
11 | CCc1ncc(CC(=O)O)cc1Cc1nc2c(F)c(F)cc(F)c2s1 (as salt: hydrochloride) [Example 14, 6-ethyl-5-(4,5,7-trifluoro-benzothiazol-2-ylmethyl)-pyridin-3-yl-acetic acid hydrochloride] | 220 °C (dec.) | –
12 | O=C(O)Cc1cnc(Cc2ccccc2)c(Cc2nc3c(F)c(F)cc(F)c3s2)c1 (as salt: hydrochloride) [Example 16, 6-Benzyl-5-(4,5,7-trifluoro-benzothiazol-2-ylmethyl)-pyridin-3-yl-acetic acid hydrochloride] | 185 °C (dec.) | –
13 | CCc1nc(CC)c(Cc2nc3c(F)c(F)cc(F)c3s2)cc1CC(=O)O.Cl [Example 5, [2,6-Diethyl-5-(4,5,7-trifluoro-benzothiazol-2-ylmethyl)-pyridin-3-yl]acetic acid hydrochloride] | 143 to 145 °C | 8.15
14 | Cl.O=C(O)Cc1cc(Cc2nc3c(F)c(F)cc(F)c3s2)c(-c2ccccc2)nc1-c1ccccc1 [Example 6, [2,6-Diphenyl-5-(4,5,7-trifluoro-benzothiazol-2-ylmethyl)-pyridin-3-yl]acetic acid hydrochloride] | 84 to 86 °C | 7.96
15 | CCCc1nc(CCC)c(Cc2nc3c(F)c(F)cc(F)c3s2)cc1CC(=O)O.Cl [Example 7, [2,6-Dipropyl-5-(4,5,7-trifluoro-benzothiazol-2-ylmethyl)-pyridin-3-yl]acetic acid hydrochloride] | 98 to 100 °C | 8.15
